Laboratory results taken from US10662204B2 (PFIZER INC., priority 2018, dated 2020).

Molecular target: T1, GDP-loaded KRAS (1-169) G12C, C51S, C80L, C118S (Homo sapiens, UniProt P01116, C118S/C51S/C80L/G12C)
T1 construct: GDP-loaded KRAS (1-169) G12C, C51S, C80L, C118S
Test: Mass Spectrometry Reactivity Assay (MSRA): covalent adduct of compound and KRAS G12C, Percent Modification
Type: binding
Details: for MSRA (% modification) 10 μM 0.50 hr: 10 μM compound; for MSRA (% modification) 5.0 μM 0.017 hr: 5.0 μM compound
Method: Mass Spectrometry Reactivity Assay (MSRA)
Compounds presented in the present invention covalently bind to KRAS G12C using MSRA to detect a covalent adduct of the exemplary compound and KRAS G12C.
GDP-loaded KRAS (1-169) G12C, C51S, C80L, C118S were diluted in the protein assay buffer 25 mM Hepes pH7.5, 200 mM NaCl, 5% glycerol to concentration of 5 μM and 20 μl of protein was transferred into 96-well plate. Initial compound stocks were generated at concentrations 100-fold higher that their desired assay concentrations. See K-Ras(G12C) inhibitors allosterically control GTP affinity and effector interactions; Ostrem J M, Peters U, Sos M L, Wells J A, Shokat K M; Nature. 2013, Nov. 28; 503(7477):548-51.
Exemplary compounds dissolved in DMSO were diluted 100-fold into solution containing 20 μl of 5 μM KRAS protein in the 96-well plate to initiate the reaction. Mosquito (TPP Lab tech) liquid handling robot was used to add compounds to protein solution. Typical final concentration of the compounds was 5 μM or 10 μM. The plates were placed on a shaker for 1 min at RT, sealed and incubated at room temperature for specified time period. 5 μl of reaction mix was added to 10 μl of 0.2% formic acid stop solution and mixed well. Typical end points were 1, 15, 30, and 60 min.
Data were collected using Waters Acquity H-class UPLC system/Xevo G2-XS TOF mass spectrometer. The protein was injected in their liquid phase onto a Bruker Microtrap protein column TR1/15109/03. The following buffers were used to set LC gradient: Buffer A: 0.2% formic acid H2O; B: 0.2% formic acid CAN. The protein was eluted from the column using the following LC Gradient: 0-0.4 min, 10% B to 30% B; 0.4 min-2.4 min, to 90% B, 2.5 min, 10% B, 3 min, 10% B. Initial data analysis was performed using MaxEnt software right after data acquisition.
The standard auto processing function was used to define percentage of unmodified and modified KRAS protein using MexEnt software right after data acquisition. The highest peak was defined as 100% while smaller peak as assigned the number defined by autoprocessing function. The percent of modification corresponding to modified with exemplary compound and unmodified KRAS GDP-loaded KRAS (1-169) G12C, C51S, C80L, C118S were exported to Xcel data analysis software.
The percent of modified protein at the defined concentration of exemplary compound was calculated using the following formula: % mod=Num of modified peak/Sum of modified+unmodified. The resultant value defined as Percent Modification (PM) and an increase in PM reflects that the specific compound is better than other compounds at specified compound concentration at a given time point.

| MSRA (% modification) 10 μM 0.50 hr | MSRA (% modification) 5.0 μM 0.017 hr | Structure (SMILES) |
| --- | --- | --- |
| 26% |  | C=CC(=O)N1CCN(c2ncnc3c(Oc4c(Br)ccc5[nH]ncc45)cccc23)CC1 [Example 11C, 1-(4-(8-((5-bromo-1H-indazol-4-yl)oxy)quinazolin-4-yl)piperazin-1-yl)prop-2-en-1-one] |
|  | 20% | C=CC(=O)N1CCN(c2nc(O[C@@H]3CN(C)C[C@H]3C)nc3c(Oc4c(Cl)c(F)cc5[nH]ncc45)nccc23)CC1 (racemic) [Example 24I, rac-1-[4-(8-[(5-chloro-6-fluoro-1H-indazol-4-yl)oxy]-2-{[(3S,4R)-1,4-dimethyl-pyrrolidin-3-yl]oxy}pyrido [3,4-d]pyrimidin-4-yl)piperazin-1-yl]prop-2-en-1-one] |
|  | 17% | C=CC(=O)N1CCN(c2nc(OC3CN(C)CC34CC4)nc3c(Oc4c(Cl)c(F)cc5[nH]ncc45)nccc23)CC1 (stereo not drawn) [Example 26I, 1-(4-{8-[(5-chloro-6-fluoro-1H-indazol-4-yl)oxy]-2-[(5-methyl-5-azaspiro [2.4]heptan-7-yl)oxy]pyrido [3,4-d]pyrimidin-4-yl}piperazin-1-yl)prop-2-en-1-one] |
|  | 6% | C=CC(=O)N1CCN(c2nc(O[C@H]3CN(C)C[C@H]3C)nc3c(Oc4c(Cl)c(F)cc5[nH]ncc45)nccc23)CC1 (racemic) [Example 25I, rac-1-[4-(8-[(5-chloro-6-fluoro-1H-indazol-4-yl)oxy]-2-{[(3S,4S)-1,4-dimethyl-pyrrolidin-3-yl]oxy}pyrido [3,4-d]pyrimidin-4-yl)piperazin-1-yl]prop-2-en-1-one] |
| 12% |  | C=CC(=O)N1CCN(c2ncnc3c(Oc4c(Br)ccc5[nH]ncc45)nccc23)CC1 [Example 15C, 1-(4-{8-[(5-bromo-1H-indazol-4-yl)oxy]pyrido[3,4-d]pyrimidin-4-yl}piperazin-1-yl)prop-2-en-1-one] |
|  | 16% | C=CC(=O)N1CCN(c2nc(O[C@@H]3CCN(C)C[C@H]3C)nc3c(Oc4c(Cl)c(F)cc5[nH]ncc45)nccc23)CC1 (racemic) [Example 29I, rac-1-[4-(8-[(5-chloro-6-fluoro-1H-indazol-4-yl)oxy]-2-{[(3R,4R)-1,3-dimethyl-piperidin-4-yl]oxy}pyrido [3,4-d]pyrimidin-4-yl)piperazin-1-yl]prop-2-en-1-one] |
|  | 14% | C=CC(=O)N1CCN(c2nc(Oc3nn(C)c4c3CCN(C)C4)nc3c(Oc4c(Cl)c(F)cc5[nH]ncc45)nccc23)CC1 [Example 47I, 1-(4-{8-[(5-chloro-6-fluoro-1H-indazol-4-yl)oxy]-2-[(1,6-dimethyl-4,5,6,7-tetrahydro-1H-pyrazolo [3,4-c]pyridin-3-yl)oxy]pyrido [3,4-d]pyrimidin-4-yl}piperazin-1-yl)prop-2-en-1-one] |
|  | 15% | C=CC(=O)N1CCN(c2nc(O[C@@H]3CCN(CCOC)C[C@H]3C)nc3c(Oc4c(Cl)c(F)cc5[nH]ncc45)nccc23)CC1 (racemic) [Example 27I, rac-1-[4-(8-[(5-chloro-6-fluoro-1H-indazol-4-yl)oxy]-2-{[(3R,4R)-1-(2-methoxy-ethyl)-3-methyl-piperidin-4-yl]oxy}pyrido [3,4-d]pyrimidin-4-yl)piperazin-1-yl]prop-2-en-1-one] |
|  | 16% | C=CC(=O)N1CCN(c2nc(O[C@@H]3CN(C)C[C@H]3OC)nc3c(Oc4c(Cl)c(F)cc5[nH]ncc45)nccc23)C[C@@H]1C [Example 37I, 1-[(2S)-4-(8-[(5-chloro-6-fluoro-1H-indazol-4-yl)oxy]-2-{[(3R,4R)-4-methoxy-1-methyl-pyrrolidin-3-yl]oxy}pyrido [3,4-d]pyrimidin-4-yl)-2-methyl-piperazin-1-yl]prop-2-en-1-one] |
